Laboratory results: patent US10322136B2, “Composition for inhibiting growth or proliferation of chronic myelogenous leukemia cancer stem cells, and screening method therefor” (HIROSHIMA UNIVERSITY, priority 2015, dated 2019)

Test system: BCR-ABL1+ disease
Experiment: Survival and disease recurrence of BCR-ABL1 CML-affected mice
Format: in vivo, mouse
Details: oral gavage days 8 to 90 post transplantation; IM 100 mg/kg/day; cefadroxil 36 mg/kg/day; versus vehicle
Source text: BCR-ABL1 transduction/transplantation-based CML model (BCR-ABL1 CML mice) was also used. Briefly, normal KLS^+ cells (4-5×10^3 cells per recipient mouse) were transduced with the human BCR-ABL1-ires GFP retrovirus and transplanted into irradiated (9 Gy) recipient C57BL/6 mice (Sankyo-Lab Service, Tsukuba, Japan).
Treatment was delivered by oral gavage on days 8 to 90 post transplantation. To examine the effect of single administration of Ly2228820, BCR-ABL1-CML-affected mice received vehicle, or Ly2228820 (2.5 mg kg^−1 every three days; Axon Medchem) in vehicle, by oral gavage on days 8 to 60 days post transplantation.

Structure (SMILES): CC1=C(C(=O)O)N2C(=O)[C@@H](NC(=O)[C@H](N)c3ccc(O)cc3)[C@H]2SC1 [cefadroxil]
- BCR-ABL1+ disease onset / development: appeared to promote disease development
